Measurements: paper PMC4965148 (PLoS ONE, 2016)
Where “and” joins values, the source holds several entries; their conditions need not be identical. Equal values may be shown once. Read-outs that look alike come from different tables or passages of the source.

Legend:
[1] = Plasma and brain concentrations after dosing; format: in vivo, rat; settings: rat, plasma, sc
Procedure: At specified time points after dosing, the forebrain (for occupancy), the remaining hindbrain (for brain drug exposure) and plasma were collected, frozen in chilled isopentane and stored at -80°C until assayed.
In brief, 50 μL of the plasma sample was extracted by protein precipitation with 150 μL acetonitrile containing an internal standard and 5 μL of supernatant injected into the LC-MS/MS system. Analytes were separated by reversed phase chromatography and detection of each analyte was achieved through selected reaction monitoring mode of mass spectrometry.

GABA-A α1β2γ2 = GABA-A α1β2γ2 (Homo sapiens, UniProt P14867+P18507+P47870); experiment: Selectivity panel, functional; format: cell-based
human 5-HT3A receptors = molecular target: T1, human 5-HT3A receptors (Homo sapiens, UniProt P46098); experiment: biochemical
T1 sequence (P46098 24-478): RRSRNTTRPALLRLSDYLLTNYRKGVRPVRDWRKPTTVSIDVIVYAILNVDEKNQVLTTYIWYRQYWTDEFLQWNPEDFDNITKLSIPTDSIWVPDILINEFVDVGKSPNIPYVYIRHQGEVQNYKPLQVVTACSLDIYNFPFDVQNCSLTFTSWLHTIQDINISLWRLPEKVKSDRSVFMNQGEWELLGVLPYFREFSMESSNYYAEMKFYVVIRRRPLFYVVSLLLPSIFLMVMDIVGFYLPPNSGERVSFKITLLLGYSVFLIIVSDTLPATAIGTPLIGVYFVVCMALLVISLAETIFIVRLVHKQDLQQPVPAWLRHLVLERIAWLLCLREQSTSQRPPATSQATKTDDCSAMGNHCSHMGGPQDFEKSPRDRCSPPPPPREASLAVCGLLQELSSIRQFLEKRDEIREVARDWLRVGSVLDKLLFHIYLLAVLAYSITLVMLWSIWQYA

Acetylcholinesterase = Acetylcholinesterase (Electrophorus electricus, UniProt O42275); experiment: Selectivity panel, enzyme; format: biochemical; settings: Eel
[2] = molecular target: T2, HEK293/rat α7 nAChR cells (Rattus norvegicus, UniProt Q05941); experiment: Whole cell voltage clamp electrophysiology; format: cell-based; settings: for Net Charge (Current Area) normalized to 300 µM ACh / Peak Current normalized to 3 mM ACh: individual cells; for mean ± SEM peak current Ymax: n = 5
T2 construct: expressed in transfected cells
Procedure: Whole-cell voltage clamp studies were conducted on HEK293/rat α7 or HEK293/human α7 nAChR cells. […] Atropine (1 μM) was included in the bathing solution. […] Cells were voltage clamped at a holding potential of -90 mV. Using the Dynaflow microfluidic perfusion system (Cellectricon; flow 26 μl/min) responses to a 300 ms application of ACh or α7 nAChR agonists were measured. Currents were filtered at 2 kHz and sampled at 10 kHz using an EPC-9 amplifier and HEKA Pulse/Patchmaster software. […] The peak current amplitude and net charge crossing the membrane (i.e. the area under the current response curve) induced by agonist application were measured using Clampfit (pClamp Suite) and normalized to the maximal response induced by ACh (3 mM ACh for peak current amplitude and 300 μM ACh for net charge).

α7 nAChR [3] = molecular target: T3, α7 nAChR (Mus musculus, UniProt P49582); experiment: Ex vivo α7 nAChR occupancy ([3H]-A-585539); format: in vivo
T3 construct: One forebrain hemisphere from each animal was thawed and homogenized in assay buffer; from tissue; host or cells: forebrain homogenate of dosed male C57Bl/6 mice
Procedure: Occupancy determinations were made either on completion of behavioral testing or in satellite groups of animals dosed in parallel with behavioral testing. At specified time points after dosing, the forebrain (for occupancy), the remaining hindbrain (for brain drug exposure) and plasma were collected, frozen in chilled isopentane and stored at -80°C until assayed. […] Homogenized tissue aliquots were frozen immediately and stored at -80°C. […] The filters were washed with ice-cold assay buffer, punched into a clear plate and 200 μl scintillation fluid added per well. Bound radioactivity was measured using a Wallac Microbeta liquid scintillation counter. Specific binding was calculated by subtracting the value of the non-specific binding from that of the total binding in each sample. The percent occupancy was calculated as [1 –(specific binding in drug treated mice/specific binding in vehicle treated mice)] x 100.

Histamine H2 = Histamine H2 (Homo sapiens, UniProt P25021); experiment: Selectivity panel, binding
α7 nAChR [4] = molecular target: T4, α7 nAChR (Rattus norvegicus, UniProt Q05941); experiment: Ex vivo α7 nAChR occupancy ([3H]-A-585539); format: in vivo; settings: for receptor occupancy at 10 mg/kg: rat
T4 construct: One forebrain hemisphere from each animal was thawed and homogenized in assay buffer; from tissue; host or cells: forebrain homogenate of dosed male Sprague Dawley rats
T4 sequence (Q05941 23-502): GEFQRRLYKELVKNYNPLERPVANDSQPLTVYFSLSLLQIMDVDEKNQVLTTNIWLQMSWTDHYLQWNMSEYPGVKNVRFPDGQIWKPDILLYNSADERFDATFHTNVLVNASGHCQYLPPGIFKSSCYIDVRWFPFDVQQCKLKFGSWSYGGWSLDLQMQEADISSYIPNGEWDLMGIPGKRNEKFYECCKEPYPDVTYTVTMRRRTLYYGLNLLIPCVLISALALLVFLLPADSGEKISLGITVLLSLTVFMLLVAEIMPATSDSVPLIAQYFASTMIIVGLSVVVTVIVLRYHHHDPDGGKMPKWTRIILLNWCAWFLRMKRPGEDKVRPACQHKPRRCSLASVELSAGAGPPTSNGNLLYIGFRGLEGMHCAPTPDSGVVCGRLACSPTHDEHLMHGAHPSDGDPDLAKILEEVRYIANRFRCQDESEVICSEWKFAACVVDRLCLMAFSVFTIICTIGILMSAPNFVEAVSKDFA

T3 sequence (P49582 23-502): as the sequence (Q05941 23-502) above, with A402T counted along it
T2 sequence (Q05941 23-502): as the sequence (Q05941 23-502) above
Acetylcholinesterase, sequence (O42275 24-633): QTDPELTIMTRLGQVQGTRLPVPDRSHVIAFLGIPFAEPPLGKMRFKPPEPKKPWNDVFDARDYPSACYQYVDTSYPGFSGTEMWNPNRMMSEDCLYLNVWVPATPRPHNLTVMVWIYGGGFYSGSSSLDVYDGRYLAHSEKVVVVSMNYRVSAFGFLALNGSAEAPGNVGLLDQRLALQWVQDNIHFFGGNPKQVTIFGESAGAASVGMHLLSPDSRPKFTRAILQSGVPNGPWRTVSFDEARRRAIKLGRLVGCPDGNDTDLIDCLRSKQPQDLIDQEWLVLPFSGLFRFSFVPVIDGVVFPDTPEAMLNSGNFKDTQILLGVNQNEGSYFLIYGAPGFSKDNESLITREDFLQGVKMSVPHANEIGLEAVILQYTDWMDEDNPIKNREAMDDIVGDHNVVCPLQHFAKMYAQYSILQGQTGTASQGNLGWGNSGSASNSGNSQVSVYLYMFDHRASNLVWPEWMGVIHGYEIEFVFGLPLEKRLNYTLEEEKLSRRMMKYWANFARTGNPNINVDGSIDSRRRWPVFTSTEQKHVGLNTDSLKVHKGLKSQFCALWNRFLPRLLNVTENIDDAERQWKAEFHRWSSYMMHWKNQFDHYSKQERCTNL
GABA-A α1β2γ2, sequence (P14867 28-456): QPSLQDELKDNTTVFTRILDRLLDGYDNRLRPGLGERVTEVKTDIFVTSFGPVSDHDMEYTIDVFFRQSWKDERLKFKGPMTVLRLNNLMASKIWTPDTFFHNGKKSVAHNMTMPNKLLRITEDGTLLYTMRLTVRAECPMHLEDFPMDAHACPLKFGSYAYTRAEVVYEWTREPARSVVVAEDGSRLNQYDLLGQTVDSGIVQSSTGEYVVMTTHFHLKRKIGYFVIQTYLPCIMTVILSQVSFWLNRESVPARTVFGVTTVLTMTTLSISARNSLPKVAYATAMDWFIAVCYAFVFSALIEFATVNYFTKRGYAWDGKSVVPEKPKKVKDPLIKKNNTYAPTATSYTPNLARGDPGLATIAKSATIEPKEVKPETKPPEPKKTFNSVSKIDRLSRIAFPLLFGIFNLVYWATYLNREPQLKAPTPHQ
GABA-A α1β2γ2, sequence (P47870 25-512 limits assumed): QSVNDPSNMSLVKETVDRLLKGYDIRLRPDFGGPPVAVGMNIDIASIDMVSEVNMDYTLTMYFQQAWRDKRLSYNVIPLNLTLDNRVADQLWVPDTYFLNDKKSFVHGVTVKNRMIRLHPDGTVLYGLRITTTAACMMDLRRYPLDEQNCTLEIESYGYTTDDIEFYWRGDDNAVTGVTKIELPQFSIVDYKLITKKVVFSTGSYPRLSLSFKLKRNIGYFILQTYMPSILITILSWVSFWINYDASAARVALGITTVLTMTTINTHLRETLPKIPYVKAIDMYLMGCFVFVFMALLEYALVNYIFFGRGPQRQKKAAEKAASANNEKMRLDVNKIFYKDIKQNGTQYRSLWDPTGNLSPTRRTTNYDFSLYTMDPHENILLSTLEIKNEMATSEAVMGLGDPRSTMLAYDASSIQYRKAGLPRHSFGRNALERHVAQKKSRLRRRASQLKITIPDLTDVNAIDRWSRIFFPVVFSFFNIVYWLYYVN
GABA-A α1β2γ2, sequence (P18507 40-475): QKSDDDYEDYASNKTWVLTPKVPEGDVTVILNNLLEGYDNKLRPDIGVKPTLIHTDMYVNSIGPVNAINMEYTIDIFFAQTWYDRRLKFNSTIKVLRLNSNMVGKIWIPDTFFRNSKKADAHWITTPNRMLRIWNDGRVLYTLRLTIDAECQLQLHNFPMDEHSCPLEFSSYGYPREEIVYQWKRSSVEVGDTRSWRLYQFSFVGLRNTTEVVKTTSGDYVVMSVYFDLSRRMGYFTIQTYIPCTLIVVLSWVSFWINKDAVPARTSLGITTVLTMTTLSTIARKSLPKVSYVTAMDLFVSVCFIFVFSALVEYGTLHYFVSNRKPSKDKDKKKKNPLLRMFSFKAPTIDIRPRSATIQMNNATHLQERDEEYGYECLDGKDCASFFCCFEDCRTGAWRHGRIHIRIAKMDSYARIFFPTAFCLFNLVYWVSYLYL
Histamine H2, sequence (P25021 whole entry): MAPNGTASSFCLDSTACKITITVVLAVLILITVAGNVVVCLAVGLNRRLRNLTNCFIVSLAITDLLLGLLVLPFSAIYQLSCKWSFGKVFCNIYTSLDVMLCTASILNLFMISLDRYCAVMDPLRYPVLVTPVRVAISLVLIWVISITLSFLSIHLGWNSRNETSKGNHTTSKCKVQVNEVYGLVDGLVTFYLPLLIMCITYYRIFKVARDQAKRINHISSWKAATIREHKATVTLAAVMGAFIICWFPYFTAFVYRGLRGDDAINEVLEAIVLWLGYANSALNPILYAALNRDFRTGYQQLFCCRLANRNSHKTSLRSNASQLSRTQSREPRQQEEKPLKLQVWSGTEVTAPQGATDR

Structure (SMILES): c1cn(-c2cc(NC3=NC[C@@]4(CN5CCC4CC5)O3)ncn2)cn1 [BMS-933043, (2R)-N-(6-(1H-imidazol-1-yl)-4-pyrimidinyl)-4'H-spiro[4-azabicyclo[2.2.2]octane-2,5'-[1,3]oxazol]-2'-amine]
- concentration at 30 min ([1]; 0.1 mg/kg, Rat MMN, 0.10 mg/kg sc, 30 min, read-out: Plasma Mean ± SD): 24 ± 0.6 nM
- concentration at 30 min ([1]; 0.3 mg/kg, Rat MMN, 0.30 mg/kg sc, 30 min, read-out: Plasma Mean ± SD): 75 ± 6 nM
- concentration at 30 min ([1]; 0.3 mg/kg, Rat N40 Gating, 0.30 mg/kg sc, 30 min, read-out: Plasma Mean ± SD): 81 ± 8 nM
- concentration at 30 min ([1]; 0.56 mg/kg, Rat N40 Gating, 0.56 mg/kg sc, 30 min, read-out: Plasma Mean ± SD): 146 ± 12 nM
- concentration at 30 min ([1]; 1 mg/kg, Rat MMN, 1 mg/kg sc, 30 min, read-out: Plasma Mean ± SD): 398 ± 139 nM
- concentration at 30 min ([1]; 1 mg/kg, Rat N40 Gating, 1 mg/kg sc, 30 min, read-out: Plasma Mean ± SD): 295 ± 27 nM
- concentration at 30 min ([1]; 3 mg/kg, Rat MMN, 3 mg/kg sc, 30 min, read-out: Plasma Mean ± SD): 1970 nM
- concentration at 30 min ([1]; 3 mg/kg, Rat N40 Gating, 3 mg/kg sc, 30 min, read-out: Plasma Mean ± SD): 1360 nM
- concentration at 30 min ([1]; subcutaneous, 10 mg/kg, N40 gating, read-out: average plasma concentration at dose with loss of efficacy): 3310 nM
- IC50 (GABA-A α1β2γ2): > 30000 nM
- Ki (human 5-HT3A receptors; HEK293/human 5-HT3A Ki (individual), individual determinations): 2310 nM and 2590 nM
- Ki (human 5-HT3A receptors; human 5-HT3A mean Ki ± SD): 2450 nM
- IC50 (Acetylcholinesterase): > 60000 nM
- EC50 [2]: 140 ± 30 nM
- Net Charge (Current Area) normalized to 300 µM ACh ([2]; 0.1 µM): 0.00864 and -0.014 and 0.05917 and 0.0877
- Peak Current normalized to 3 mM ACh ([2]; 0.1 µM): 0.01158 and 0.01083 and 0.01236 and 0.0131
- Net Charge (Current Area) normalized to 300 µM ACh ([2]; 0.3 µM): 0.4138 and 0.2853 and 0.4739 and 0.5256
- Peak Current normalized to 3 mM ACh ([2]; 0.3 µM): 0.04784 and 0.02829 and 0.03284 and 0.03669
- Net Charge (Current Area) normalized to 300 µM ACh ([2]; 1 µM): 0.7172 and 0.3555 and 0.6626 and 0.6549
- Peak Current normalized to 3 mM ACh ([2]; 1 µM): 0.07111 and 0.07356 and 0.0749 and 0.08082
- Net Charge (Current Area) normalized to 300 µM ACh ([2]; 3 µM): 0.7919 and 0.4794 and 0.6677 and 0.6569
- Peak Current normalized to 3 mM ACh ([2]; 3 µM): 0.1558 and 0.1519 and 0.1651 and 0.1365
- Net Charge (Current Area) normalized to 300 µM ACh ([2]; 10 µM): 0.8266 and 0.4637 and 0.7322 and 0.6673
- Peak Current normalized to 3 mM ACh ([2]; 10 µM): 0.2731 and 0.2904 and 0.2952 and 0.2153
- mean ± SEM peak current Ymax ([2]; BMS-933043 10 μM alone): 0.26 ± 0.03
- mean ± SEM peak current Ymax ([2]; BMS-933043 10 μM in the presence of 10 nM MLA): 0.02 ± 0.003
- Mean ± SEM Net Charge Ymax ([2]; Rat, normalized to 300 μM ACh): 0.67 ± 0.07
- Mean ± SEM Peak Current Ymaxobs @ 10 μM ([2]; Rat, normalized to 3 mM ACh): 0.27 ± 0.02
- EC50 (α7 nAChR [3]): 1900 nM
- % ex vivo α7 nAChR occupancy (α7 nAChR [3]; 0.3 mg/kg sc, 30 min, individual mice): 11.2% and -5.2% and 7.5% and -6.3%
- % ex vivo α7 nAChR occupancy (α7 nAChR [3]; 1 mg/kg sc, 30 min): 18.3% and 25.5% and 25.4% and ~ 20%
- % ex vivo α7 nAChR occupancy (α7 nAChR [3]; 3 mg/kg sc, 30 min, individual mice): 56.2% and 44.9% and 45.1%
- % ex vivo α7 nAChR occupancy (α7 nAChR [3]; 10 mg/kg sc, 30 min): 76.4% and 74.8% and 75.4% and > 75%
- % ex vivo α7 nAChR occupancy (α7 nAChR [3]; 100 mg/kg sc, 30 min, individual mice): 93.3% and 94.1% and 92.1%
- receptor occupancy at 1 mg/kg (α7 nAChR [3]; mouse, sc, read-out: % ex vivo α7 nAChR occupancy, 1 mg/kg sc, 30 min): 23.9%
- receptor occupancy at 3 mg/kg (α7 nAChR [3]; mouse, sc, read-out: % ex vivo α7 nAChR occupancy, 3 mg/kg sc, 30 min, individual mice): 41.3%
- receptor occupancy at 10 mg/kg (α7 nAChR [3]; mouse, sc, read-out: % ex vivo α7 nAChR occupancy, 10 mg/kg sc, 30 min): 78.5%
- receptor occupancy at 100 mg/kg (α7 nAChR [3]; mouse, sc, read-out: % ex vivo α7 nAChR occupancy, 100 mg/kg sc, 30 min, individual mice): 91.3%
- IC50 (Histamine H2): > 30000 nM
- % ex vivo α7 nAChR occupancy (α7 nAChR [4]; 3 mg/kg po, 90 min, individual rats): 65% and 63% and 62% and 28%
- % ex vivo α7 nAChR occupancy (α7 nAChR [4]; 10 mg/kg po, 90 min): 83% and 78% and 77% and > 75%
- % ex vivo α7 nAChR occupancy (α7 nAChR [4]; 30 mg/kg po, 90 min, individual rats): 82% and 90% and 67% and 69%
- receptor occupancy at 10 mg/kg (α7 nAChR [4]; po, 10 mg/kg po, 90 min, read-out: % ex vivo α7 nAChR occupancy): 80%
- receptor occupancy at 10 mg/kg (α7 nAChR [4]; rats, 10 mg/kg sc to 30 mg/kg po, read-out: ex vivo α7 nAChR occupancy at doses associated with a loss of efficacy): ≥ 80%
- EC50 (α7 nAChR [4]; rats, read-out: total plasma concentration achieving 50% ex vivo α7 nAChR occupancy): 810 nM
